For 6 compounds, IC50 and EC50 results are on record in BindingDB's records for doi:10.1016/j.bmc.2020.115716 (Chemical Diversity Research Institute, 2020).

Broadly, the IC50 is the concentration that inhibits the measured activity by half. By EC50 is commonly meant the concentration needed to bring the measured effect to its halfway point.

One assay is described as follows: Inhibition of HCV genotype 2a NS5A infected in Huh7 cells assessed as reduction in viral replication incubated 3 days and measured by bright Glo-luciferase reporter gene assay. On the technique in general: Reporter assays use an easily measured gene product as a stand-in for the process of interest.
On to `COC(=O)N[C@H](C(=O)N1CCC[C@H]1c1ncc(C#CC#Cc2ccc(-c3cnc([C@@H]4CCCN4C(=O)[C@@H](NC(=O)OC)C(C)C)[nH]3)cc2)[nH]1)c1ccccc1`, for which the IC50 came out at 0.431 nM.
The same measure, in the same setting: then `COC(=O)N[C@H](C(=O)N1CCC[C@H]1c1ncc(C#CC#Cc2ccc(-c3cnc([C@@H]4CCCN4C(=O)[C@@H](NC(=O)OC)C(C)C)[nH]3)cc2-c2ccc3ccccc3c2)[nH]1)C(C)C`, with 0.028 nM; and `COC(=O)N[C@H](C(=O)N1CCC[C@H]1c1ncc(C#CC#Cc2ccc(-c3cnc([C@@H]4CCCN4C(=O)[C@@H](NC(=O)OC)C(C)C)[nH]3)cc2-c2ccc(C(C)(C)C)cc2)[nH]1)C(C)C`, with 1.68 nM.

A further assay is described as follows: Inhibition of HCV genotype 4a NS5A infected in Huh7 cells assessed as reduction in viral replication incubated 3 days and measured by bright Glo-luciferase reporter gene assay.
For the compound `COC(=O)N[C@H](C(=O)N1CCC[C@H]1c1ncc(-c2ccc(C#CC#Cc3cnc([C@@H]4CCCN4C(=O)[C@H](NC(=O)OC)c4ccccc4)[nH]3)c(-c3ccc(-c4ccccc4)cc3)c2)[nH]1)C(C)C`, the IC50 stood at 0.006 nM.
`COC(=O)N[C@H](C(=O)N1CCC[C@H]1c1ncc(-c2ccc(C#CC#Cc3cnc([C@@H]4CCCN4C(=O)[C@H](NC(=O)OC)c4ccccc4)[nH]3)c(-c3ccc(C(C)(C)C)cc3)c2)[nH]1)C(C)C`: the IC50 is 0.01 nM.
As for `COC(=O)N[C@H](C(=O)N1CCC[C@H]1c1ncc(C#CC#Cc2ccc(-c3cnc([C@@H]4CCCN4C(=O)[C@@H](NC(=O)OC)C(C)C)[nH]3)cc2)[nH]1)c1ccccc1`, the IC50 came out at 0.423 nM.
Same read-out and setting: then `COC(=O)N[C@H](C(=O)N1CCC[C@H]1c1ncc(C#CC#Cc2ccc(-c3cnc([C@@H]4CCCN4C(=O)[C@@H](NC(=O)OC)C(C)C)[nH]3)cc2-c2ccc3ccccc3c2)[nH]1)C(C)C`, with 0.008 nM; and `COC(=O)N[C@H](C(=O)N1CCC[C@H]1c1ncc(C#CC#Cc2ccc(-c3cnc([C@@H]4CCCN4C(=O)[C@@H](NC(=O)OC)C(C)C)[nH]3)cc2-c2ccc(C(C)(C)C)cc2)[nH]1)C(C)C`, with 0.011 nM.

Another assay can be described thus: Inhibition of HCV genotype 1b NS5A infected in Huh7 cells assessed as reduction in viral replication incubated 3 days and measured by Bright-Glo luciferase assay.
`COC(=O)N[C@H](C(=O)N1CCC[C@H]1c1ncc(-c2ccc(C#CC#Cc3cnc([C@@H]4CCCN4C(=O)[C@H](NC(=O)OC)c4ccccc4)[nH]3)c(-c3ccccc3)c2)[nH]1)C(C)C`: the EC50 came to 2.9 pM.
The same measure, in the same setting: for `COC(=O)N[C@H](C(=O)N1CCC[C@H]1c1ncc(C#CC#Cc2ccc(-c3cnc([C@@H]4CCCN4C(=O)[C@@H](NC(=O)OC)C(C)C)[nH]3)cc2)[nH]1)c1ccccc1` the value was 12 pM.

The nature of a further assay: Inhibition of HCV genotype 5a NS5A infected in Huh7 cells assessed as reduction in viral replication incubated 3 days and measured by bright Glo-luciferase reporter gene assay.
In the case of `COC(=O)N[C@H](C(=O)N1CCC[C@H]1c1ncc(-c2ccc(C#CC#Cc3cnc([C@@H]4CCCN4C(=O)[C@H](NC(=O)OC)c4ccccc4)[nH]3)c(-c3ccc(-c4ccccc4)cc3)c2)[nH]1)C(C)C`, the IC50 is 0.131 nM.
With `COC(=O)N[C@H](C(=O)N1CCC[C@H]1c1ncc(-c2ccc(C#CC#Cc3cnc([C@@H]4CCCN4C(=O)[C@H](NC(=O)OC)c4ccccc4)[nH]3)c(-c3ccccc3)c2)[nH]1)C(C)C`, the IC50 worked out at 0.026 nM.
Regarding `COC(=O)N[C@H](C(=O)N1CCC[C@H]1c1ncc(-c2ccc(C#CC#Cc3cnc([C@@H]4CCCN4C(=O)[C@H](NC(=O)OC)c4ccccc4)[nH]3)c(-c3ccc(C(C)(C)C)cc3)c2)[nH]1)C(C)C`, the IC50 is 0.693 nM.
As for `COC(=O)N[C@H](C(=O)N1CCC[C@H]1c1ncc(C#CC#Cc2ccc(-c3cnc([C@@H]4CCCN4C(=O)[C@@H](NC(=O)OC)C(C)C)[nH]3)cc2)[nH]1)c1ccccc1`, the IC50 amounted to 6.4 nM.
As for `COC(=O)N[C@H](C(=O)N1CCC[C@H]1c1ncc(C#CC#Cc2ccc(-c3cnc([C@@H]4CCCN4C(=O)[C@@H](NC(=O)OC)C(C)C)[nH]3)cc2-c2ccc3ccccc3c2)[nH]1)C(C)C`, the IC50 was found to be 0.267 nM.
For `COC(=O)N[C@H](C(=O)N1CCC[C@H]1c1ncc(C#CC#Cc2ccc(-c3cnc([C@@H]4CCCN4C(=O)[C@@H](NC(=O)OC)C(C)C)[nH]3)cc2-c2ccc(C(C)(C)C)cc2)[nH]1)C(C)C`, the IC50 came out at 0.356 nM.

Another assay can be described thus: Inhibition of HCV genotype 1a NS5A infected in Huh7 cells assessed as reduction in viral replication incubated 3 days and measured by bright Glo-luciferase reporter gene assay.
In the case of `COC(=O)N[C@H](C(=O)N1CCC[C@H]1c1ncc(-c2ccc(C#CC#Cc3cnc([C@@H]4CCCN4C(=O)[C@H](NC(=O)OC)c4ccccc4)[nH]3)c(-c3ccc(-c4ccccc4)cc3)c2)[nH]1)C(C)C`, the half-maximal inhibitory concentration (IC50) was determined as 0.418 nM.
Take `COC(=O)N[C@H](C(=O)N1CCC[C@H]1c1ncc(-c2ccc(C#CC#Cc3cnc([C@@H]4CCCN4C(=O)[C@H](NC(=O)OC)c4ccccc4)[nH]3)c(-c3ccccc3)c2)[nH]1)C(C)C`: the IC50 was 0.045 nM.
Regarding `COC(=O)N[C@H](C(=O)N1CCC[C@H]1c1ncc(-c2ccc(C#CC#Cc3cnc([C@@H]4CCCN4C(=O)[C@H](NC(=O)OC)c4ccccc4)[nH]3)c(-c3ccc(C(C)(C)C)cc3)c2)[nH]1)C(C)C`, the IC50 worked out at 2.3 nM.
On the same count and under the same terms, for `COC(=O)N[C@H](C(=O)N1CCC[C@H]1c1ncc(C#CC#Cc2ccc(-c3cnc([C@@H]4CCCN4C(=O)[C@@H](NC(=O)OC)C(C)C)[nH]3)cc2)[nH]1)c1ccccc1` the value was 0.758 nM; for `COC(=O)N[C@H](C(=O)N1CCC[C@H]1c1ncc(C#CC#Cc2ccc(-c3cnc([C@@H]4CCCN4C(=O)[C@@H](NC(=O)OC)C(C)C)[nH]3)cc2-c2ccc3ccccc3c2)[nH]1)C(C)C`, 0.248 nM; for `COC(=O)N[C@H](C(=O)N1CCC[C@H]1c1ncc(C#CC#Cc2ccc(-c3cnc([C@@H]4CCCN4C(=O)[C@@H](NC(=O)OC)C(C)C)[nH]3)cc2-c2ccc(C(C)(C)C)cc2)[nH]1)C(C)C`, 0.642 nM.

A further assay is described as follows: Inhibition of HCV genotype 3a NS5A infected in Huh7 cells assessed as reduction in viral replication incubated 3 days and measured by bright Glo-luciferase reporter gene assay.
As for `COC(=O)N[C@H](C(=O)N1CCC[C@H]1c1ncc(-c2ccc(C#CC#Cc3cnc([C@@H]4CCCN4C(=O)[C@H](NC(=O)OC)c4ccccc4)[nH]3)c(-c3ccc(-c4ccccc4)cc3)c2)[nH]1)C(C)C`, the IC50 is 0.064 nM.
The same measure, in the same setting: for `COC(=O)N[C@H](C(=O)N1CCC[C@H]1c1ncc(-c2ccc(C#CC#Cc3cnc([C@@H]4CCCN4C(=O)[C@H](NC(=O)OC)c4ccccc4)[nH]3)c(-c3ccccc3)c2)[nH]1)C(C)C` the value was 0.034 nM; for `COC(=O)N[C@H](C(=O)N1CCC[C@H]1c1ncc(-c2ccc(C#CC#Cc3cnc([C@@H]4CCCN4C(=O)[C@H](NC(=O)OC)c4ccccc4)[nH]3)c(-c3ccc(C(C)(C)C)cc3)c2)[nH]1)C(C)C`, 0.362 nM.
Still for that read-out and setting: then `COC(=O)N[C@H](C(=O)N1CCC[C@H]1c1ncc(C#CC#Cc2ccc(-c3cnc([C@@H]4CCCN4C(=O)[C@@H](NC(=O)OC)C(C)C)[nH]3)cc2)[nH]1)c1ccccc1`, with 10.7 nM.
As to `COC(=O)N[C@H](C(=O)N1CCC[C@H]1c1ncc(C#CC#Cc2ccc(-c3cnc([C@@H]4CCCN4C(=O)[C@@H](NC(=O)OC)C(C)C)[nH]3)cc2-c2ccc3ccccc3c2)[nH]1)C(C)C`, the IC50 was 0.864 nM.
As for `COC(=O)N[C@H](C(=O)N1CCC[C@H]1c1ncc(C#CC#Cc2ccc(-c3cnc([C@@H]4CCCN4C(=O)[C@@H](NC(=O)OC)C(C)C)[nH]3)cc2-c2ccc(C(C)(C)C)cc2)[nH]1)C(C)C`, the concentration for half-maximal inhibition (IC50) worked out at 1.29 nM.
